What was measured:
[1] = target: T1, Bcl-2 protein (Recombinant Human Bcl-2 Protein) (Homo sapiens, UniProt P10415); experiment: AS-MS evaluation of binding of the mixture libraries of Examples 8 and 9 to Bcl-2, ASMS ratio (%), Example 11; settings: positive controls added to the mixtures of Examples 8 and 9; final compound concentration 100 nM
T1 construct: purchased Novus Biologicals NBP2-34889
Experimental: DMSO solutions (prepared into approximately 5 mM based on calculation from the average molecular weight of each mixture) of the mixtures of each Example shown in Table 11-1-1 were respectively dispensed to 8 wells of MICROPLATE, 96-WELL, PP, V-BOTTOM (Greiner Bio-One International GmbH, 651201). 400 nL each from the 8 wells of the mixtures obtained from Example 8 was dispensed into 3 designated wells while 200 nL each from the 8 wells of the mixtures obtained from Example 9 was dispensed into 3 designated wells, using LABCYTE ECHO® 555 acoustic dispensing system (Beckman Coulter, Inc.). 200 nL each of two types of 10 μM positive controls (B2Q045-01 and B2Q048-01) was dispensed to the mixtures obtained from Example 8. Likewise, 100 nL each of two types of 20 μM positive controls and 400 nL of a DMSO solution by backfill was dispensed to the mixtures obtained from Example 9. Further, Bcl-2 protein (Novus Biologicals, NBP2-34889, Recombinant Human Bcl-2 Protein, Lot E60145051) (19.2 μL) prepared at 5 µM (final protein concentration) for the mixtures obtained from Example 8 and 10 µM (final protein concentration) for the mixtures obtained from Example 9, in advance using a Tris-HCl buffer (25 mM Tris-HCl, pH 7.4, 150 mM NaCl, 0.025% Tween-20, and 1 mM DTT) was added to the well containing the dispensed 1000 compounds or 500 compounds (final compound concentration: 100 nM), and the plate was incubated at 23° C. for 1 hour in the dark. Subsequently, 200 μL of an assay buffer (25 mM Tris-HCl, pH 7.4, 150 mM NaCl, 0.025% Tween-20, and 1 mM DTT) was centrifuged three times at 2000×G at 4° C. for 2 minutes using 96-well MacroSpin column, P-2 Material (Harvard Bioscience, Inc., 74-5655) that had been allowed to swell to condition the 96-well MacroSpin column. Subsequently, 20 μL of the sample thus incubated was added to the 96-well MacroSpin column, P-2 Material after the completion of conditioning, and SEC treatment was performed by centrifugation at 2000×G for 2 minutes. 32 μL of a 1:1 mixed solution of acetonitrile and methanol (LC/MS grade, FUJIFILM Wako Pure Chemical Corp.) was added to a flow-through liquid from SEC, and the mixture was centrifuged at 1800×G at 4° C. for 5 minutes. The supernatant was used as analysis sample ASMS (A). By a similar operation, a sample prepared at 500 compounds/well or 1000 compounds/well and supplemented with only a Tris-HCl buffer containing no Bcl-2 protein was incubated under the same conditions as above, and the same organic solvent as above was added thereto without 96-well MacroSpin column treatment. A supernatant obtained by a centrifugation operation was used as STD (B). Next, by a similar operation, a sample prepared at 1000 compounds/well or 500 compounds/well and supplemented with only a Tris-HCl buffer containing no Bcl-2 protein was incubated under the same conditions as above and treated with 96-well MacroSpin column in the same manner as above, and the same organic solvent as above was added thereto. A supernatant obtained by a centrifugation operation was used as BK (C). These samples were measured by reverse-phase LC/MS.
Then, the samples A, B and C were analyzed for the 1000 compounds or 500 compounds using TraceFinder 5.1 (Thermo Fisher Scientific Inc.) and CHANCE Software (in-house), and an ASMS ratio (%) was calculated according to the following expression.
The mixtures obtained from Example 8 were tested at the number of data of 2 (N1 and N2) in order to ensure reproducibility. The mixtures obtained from Example 9 were tested at the total number of data 4 (N1,N2, N3, and N4) involving the number of data of 2/day (N1 and N2) and data obtained on additional days.

[2] = target: T1, Bcl-2 protein (Recombinant Human Bcl-2 Protein); experiment: AS-MS evaluation of binding of the Example 4 mixture library (1200 compounds/well) to Bcl-2, ASMS ratio (%)
How it was run: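 Affinity-selection MS: 1200 cpds/well, 20 nM each; hBcl-2 20 μM; 25 mM Tris pH 7.4/150 mM NaCl/0.025% Tween-20/1 mM DTT; 1 h, 23 °C, dark; P-2 size-exclusion spin, MeCN:MeOH 1:1 extraction; RP LC/MS; ratio vs no-protein STD and SEC blank.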

[3] = AS-MS, Example 4 mixture library, Bcl-2, replicate n = 1
[4] = AS-MS, Example 4 mixture library, Bcl-2, replicate n = 2
[5] = AS-MS, mixture of 1200 compounds/well, Bcl-2 protein, replicate n = 1
[6] = AS-MS, mixture of 1200 compounds/well, Bcl-2 protein, replicate n = 2
[7] = Example 4 mixture library, 1200 compounds/well, Bcl-2 protein, replicate n = 1, value belongs to the MS peak assignable to the compound
[8] = Example 4 mixture library, 1200 compounds/well, Bcl-2 protein, replicate n = 2, value belongs to the MS peak assignable to the compound

T1 sequence (P10415 whole entry): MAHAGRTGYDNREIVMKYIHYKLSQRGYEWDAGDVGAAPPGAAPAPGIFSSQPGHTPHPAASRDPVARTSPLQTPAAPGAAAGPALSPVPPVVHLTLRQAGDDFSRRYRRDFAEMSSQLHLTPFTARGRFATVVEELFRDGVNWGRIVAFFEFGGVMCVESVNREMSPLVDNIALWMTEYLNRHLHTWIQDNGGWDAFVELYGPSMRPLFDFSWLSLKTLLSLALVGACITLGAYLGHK

SMILES | ASMS ratio (%) n = 1 [2, 3] [%] | ASMS ratio (%) n = 2 [2, 4] [%] | other results
CCOc1cccc(-c2ccccc2CN2CCN(c3ccc(C(=O)NS(=O)(=O)c4ccc(NCCSc5ccccc5)c([N+](=O)[O-])c4)cc3)CC2)c1 [Compound B2Q045-01, 4-[4-[[2-(3-ethoxyphenyl)phenyl]methyl]piperazin-1-yl]-N-[3-nitro-4-(2-phenylsulfanylethylamino)phenyl]sulfonylbenzamide] |  |  | binding to Bcl-2 detected by AS-MS [1]: binding to Bcl-2 was detected
CCOc1cncc(-c2ccccc2CN2CCN(c3ccc(C(=O)NS(=O)(=O)c4ccc(NCCSc5ccccc5)c([N+](=O)[O-])c4)cc3)CC2)c1 [Compound B2Q046-01, 4-[4-[[2-(5-ethoxypyridin-3-yl)phenyl]methyl]piperazin-1-yl]-N-[3-nitro-4-(2-phenylsulfanylethylamino)phenyl]sulfonylbenzamide] |  |  | binding to Bcl-2 detected by AS-MS [1]: binding to Bcl-2 was detected
CCOc1cccc(C#Cc2cc(C(=O)N3CCN(c4ccc(C(=O)N(C)CC56CC7CC(CC(C7)C5)C6)nn4)CC3)cc(C(F)(F)F)c2)c1 [Compound B3A019-01, N-(1-Adamantylmethyl)-6-[4-[3-[2-(3-ethoxyphenyl)ethynyl]-5-(trifluoromethyl)benzoyl]piperazin-1-yl]-N-methylpyridazine-3-carboxamide] |  |  | ASMS ratio (%) n = 1 [2, 5]: 2.6%; ASMS ratio (%) n = 2 [2, 6]: −2.3%
CCOc1cncc(C#Cc2cc(C(=O)N3CCN(c4ccc(C(=O)N(C)CC56CC7CC(CC(C7)C5)C6)nn4)CC3)cc(C(F)(F)F)c2)c1 [Compound B3A020-01, N-(1-Adamantylmethyl)-6-[4-[3-[2-(5-ethoxypyridin-3-yl)ethynyl]-5-(trifluoromethyl)benzoyl]piperazin-1-yl]-N-methylpyridazine-3-carboxamide] |  |  | ASMS ratio (%) n = 1 [2, 5]: 7.5%; ASMS ratio (%) n = 2 [2, 6]: −3.2%
CCOc1cncc(-c2ccc(C(=O)N3CCN(c4ccc(C(=O)N(CC)CC)nn4)CC3)cc2F)c1 [Compound B4J006-01, 6-[4-[4-(5-Ethoxypyridin-3-yl)-3-fluorobenzoyl]piperazin-1-yl]-N,N-diethylpyridazine-3-carboxamide] |  |  | ASMS ratio (%) n = 1 [2, 7]: 0.0%; ASMS ratio (%) n = 2 [2, 8]: 0.0%
CCOc1cccc(-c2cc(OC)c(CN3CCN(c4ccc(C(=O)N(CC)CC)cc4)CC3)c(OC)c2)c1 [Compound B4J059-01, 4-[4-[[4-(3-Ethoxyphenyl)-2,6-dimethoxyphenyl]methyl]piperazin-1-yl]-N,N-diethylbenzamide] |  |  | ASMS ratio (%) n = 1 [2, 7]: −0.1%; ASMS ratio (%) n = 2 [2, 8]: −6.0%
CCOc1cncc(-c2cc(OC)c(CN3CCN(c4ccc(C(=O)N(CC)CC)cc4)CC3)c(OC)c2)c1 [Compound B4J060-01, 4-[4-[[4-(5-Ethoxypyridin-3-yl)-2,6-dimethoxyphenyl]methyl]piperazin-1-yl]-N,N-diethylbenzamide] |  |  | ASMS ratio (%) n = 1 [2, 7]: 0.0%; ASMS ratio (%) n = 2 [2, 8]: 0.0%
CCOc1cccc(-c2ccc(CN3CCN(c4ccc(C(=O)N(CC)CC)nn4)CC3)cc2F)c1 [Compound B4J077-01, 6-[4-[[4-(3-Ethoxyphenyl)-3-fluorophenyl]methyl]piperazin-1-yl]-N,N-diethylpyridazine-3-carboxamide] |  |  | ASMS ratio (%) n = 2 [2, 8]: 5.5%

The next lines start with results.

ASMS ratio (%) n = 1 [2, 3] [%] | ASMS ratio (%) n = 2 [2, 4] [%] | SMILES | other results
16.0 | −1.3 | CCOc1cncc(-c2ccc(CN3CCN(c4ccc(C(=O)NS(=O)(=O)c5ccc(NCCSc6ccccc6)c(C(F)(F)F)c5)nn4)CC3)c3ccccc23)c1 [Compound B2R092-01, 6-[4-[[4-(5-Ethoxypyridin-3-yl)naphthalen-1-yl]methyl]piperazin-1-yl]-N-[4-(2-phenylsulfanylethylamino)-3-(trifluoromethyl)phenyl]sulfonylpyridazine-3-carboxamide] | 
56.5 | 0.0 | CCOc1cccc(-c2csc(CN3CCN(c4ccc(C(=O)NS(=O)(=O)c5ccc(NCCSc6ccccc6)c(C(F)(F)F)c5)nn4)CC3)c2)c1 [Compound B2R093-01, 6-[4-[[4-(3-Ethoxyphenyl)thiophen-2-yl]methyl]piperazin-1-yl]-N-[4-(2-phenylsulfanylethylamino)-3-(trifluoromethyl)phenyl]sulfonylpyridazine-3-carboxamide] | 
18.8 | 11.9 | CCOc1cncc(-c2csc(CN3CCN(c4ccc(C(=O)NS(=O)(=O)c5ccc(NCCSc6ccccc6)c(C(F)(F)F)c5)nn4)CC3)c2)c1 [Compound B2R094-01, 6-[4-[[4-(5-Ethoxypyridin-3-yl)thiophen-2-yl]methyl]piperazin-1-yl]-N-[4-(2-phenylsulfanylethylamino)-3-(trifluoromethyl)phenyl]sulfonylpyridazine-3-carboxamide] | 
42.2 | 5.5 | CCOc1cccc(C#Cc2ccccc2CN2CCN(c3ccc(C(=O)NS(=O)(=O)c4ccc(NCCSc5ccccc5)c(C(F)(F)F)c4)nn3)CC2)c1 [Compound B2R095-01, 6-[4-[[2-[2-(3-Ethoxyphenyl)ethynyl]phenyl]methyl]piperazin-1-yl]-N-[4-(2-phenylsulfanylethylamino)-3-(trifluoromethyl)phenyl]sulfonylpyridazine-3-carboxamide] | 
6.6 | −7.8 | CCOc1cccc(-c2ccc(C(C)N3CCN(c4ccc(C(=O)NS(=O)(=O)c5ccc(NCCSc6ccccc6)c(C(F)(F)F)c5)cc4)CC3)cc2)c1 (centres unmarked) [Compound B2R097-01, 4-[4-[1-[4-(3-Ethoxyphenyl)phenyl]ethyl]piperazin-1-yl]-N-[4-(2-phenylsulfanylethylamino)-3-(trifluoromethyl)phenyl]sulfonylbenzamide] | 
9.2 | 7.5 | CCOc1cncc(-c2ccc(C(C)N3CCN(c4ccc(C(=O)NS(=O)(=O)c5ccc(NCCSc6ccccc6)c(C(F)(F)F)c5)cc4)CC3)cc2)c1 (centres unmarked) [Compound B2R098-01, 4-[4-[1-[4-(5-Ethoxypyridin-3-yl)phenyl]ethyl]piperazin-1-yl]-N-[4-(2-phenylsulfanylethylamino)-3-(trifluoromethyl)phenyl]sulfonylbenzamide] | 
−12.6 | −7.5 | CCOc1cccc(-c2ccc(C(C)N3CCN(c4ccc(C(=O)NS(=O)(=O)c5ccc(NCCSc6ccccc6)c(C(F)(F)F)c5)cc4)CC3)c(F)c2)c1 (centres unmarked) [Compound B2R099-01, 4-[4-[1-[4-(3-Ethoxyphenyl)-2-fluorophenyl]ethyl]piperazin-1-yl]-N-[4-(2-phenylsulfanylethylamino)-3-(trifluoromethyl)phenyl]sulfonylbenzamide] | 
0.6 | 10.1 | CCOc1cncc(-c2ccc(C(C)N3CCN(c4ccc(C(=O)NS(=O)(=O)c5ccc(NCCSc6ccccc6)c(C(F)(F)F)c5)cc4)CC3)c(F)c2)c1 (centres unmarked) [Compound B2R100-01, 4-[4-[1-[4-(5-Ethoxypyridin-3-yl)-2-fluorophenyl]ethyl]piperazin-1-yl]-N-[4-(2-phenylsulfanylethylamino)-3-(trifluoromethyl)phenyl]sulfonylbenzamide] | 
